Reference: patent US20200216496A1, “Antibacterial Compounds Produced by the Microorganism Strain Corallococcus Coralloides ST201330 (DSM 24989)” (Sanofi, priority 2017, published 2020)
*1 amine or outer side, *2 acyl side, *3 side chain or, on linkers, in order; H or OH if unused. Where a SMILES comes first, the peptide text is derived from it. [ ]: non-standard residue; d: D form. The star is where a group is joined. ξ: configuration not given here. X2 = Cn1cncc1C(O)C(N[*:1])C(=O)[*:2]; X3 = COC(CN[*:1])C(O)C(O)C(=O)[*:2]; ξVal(3-OH) = CC(C)(O)C(N)C(=O)O; NMeF = CN[CH](Cc1ccccc1)C(=O)O; X4 = O=C(C(O)N[*:1])[*:2]; X1 = CC(O)C(O)C(=O)*

Tests used:
[1] = system: E. coli strain ATCC35218; type: cell-based, Escherichia coli
Description: The present in vitro test identifies molecules having antimicrobial activity on the microorganisms by quantification of the culture optical density. Optical density compared to a vial with the same medium non inoculated by bacteria is an indicator of the bacterial growth. Minimal inhibitory concentrations were evaluated following the CLSI and EUCAST guidelines. Bacterial inoculum were prepared by overnight culture in cation-adjusted Mueller-Hinton II (MHII) medium from colonies isolated from colonies on agar plates, then diluted to evaluate the colony forming units (cfu) using the McFarland turbidity standard. A 96 well plate was inoculated with 100 μl of 5.105 cfu/ml in MHII, and test compounds prepared by serial dilution at 100× concentration in DMSO. After a 20-22 h incubation, optical density was evaluated on a microplate reader and the MIC endpoint was determined as the lowest concentration of antibiotic at which there is no visible growth in duplicates, meaning that optical density differs no more from negative controls than 10% of the difference in optical density between negative controls (medium, no bacteria) and positive control (bacteria in medium, no antibiotics).

[2] = system: Escherichia coli ATCC 35218; experiment: Antibacterial activity against Escherichia coli: inhibitory activity (IC80), broth microdilution, absorbance at 590 nm; type: cell-based; conditions: Mueller Hinton broth, 37° C., 20 hours, growth inhibited by 80%
Description: A stock solution of 1000 μg/ml of the test compound was prepared in methanol. The test strain (Escherichia coli ATCC 35218) was stored at −80° C. The inoculum was prepared from a fresh liquid preculture. The preculture was prepared from a bead of the material stored at −80° C. and 30 ml of nutrient medium (Mueller Hinton broth, Difco) and incubated at 37° C. and 180 rpm for 18 hours. The inoculum was adjusted to an optical density (OD) of 0.2 at a wavelength of 600 nm. For this, the inoculum was adjusted to a value of 10^8 CFU/ml (CFU: colony forming units). After the adjustment of the inoculum, the suspension was diluted with nutrient solution (Mueller Hinton broth, Difco) in a ratio of 1:10000. The microtiter plate was inoculated within 15 min of preparation of the inoculum. The exact colony count was determined by means of surface culture. Using the stock solution of the test compound and the nutrient medium (Mueller Hinton broth, Difco), a dilution series was prepared beforehand on the microtiter plate. […] The microtiter plates were read with the aid of a photometer at a wavelength of 590 nm by measurement of the absorption. IC80 values were subsequently calculated from the values of the dilution series according to a standard process as the concentration of the test compound which is necessary in order to inhibit the growth of the test organism Escherichia coli by 80%.

SMILES | Absorbance MIC [1] [µg/mL] | IC80 for inhibition of Escherichia coli ATCC 35218 [2] [µg/mL]
COC(CNC(=O)C(NC(=O)C(O)C(C)O)C(O)c1cncn1C)C(O)C(O)C(=O)N(C)C(Cc1ccccc1)C(=O)NCC(=O)NC(C(=O)NC(CO)C(=O)NC(C(=O)NC(CC(C)C)C(=O)NC(CO)C(=O)O)C(C)(C)O)C(C)(C)O (stereo not drawn) [formula Ia] (X1-[X2][X3][NMeF]G[ξVal(3-OH)]S[ξVal(3-OH)]LS-OH; configuration not given here) | 1 to 4 | 
COC(CNC(=O)C(NC(=O)C(O)C(C)O)C(O)c1cncn1C)C(O)C(O)C(=O)N(C)C(Cc1ccccc1)C(=O)NC(O)C(=O)NC(C(=O)NC(CO)C(=O)NC(C(=O)NC(CC(C)C)C(=O)NC(CO)C(=O)O)C(C)(C)O)C(C)(C)O (stereo not drawn) [formula Ib] (X1-[X2][X3][NMeF][X4][ξVal(3-OH)]S[ξVal(3-OH)]LS-OH; configuration not given here) | 8 | 0.71
